Laboratory results reported in patent US6982257B1, “Vitamin D3 derivative and its production method” (Teijin Limited, priority 1997, dated 2006).

Columns and labels:
[1] = molecular target: T1, bovine thymus 1α,25-dihydroxyvitamin D3 receptor (VDR) (Bos taurus, UniProt Q28037); conditions: relative intensity ratio based on 100 for 1α,25-dihydroxyvitamin D3, from the concentration inhibiting [3H]1α,25-dihydroxyvitamin D3 (0.1 nM) binding by 50%
T1 sequence (Q28037 1-426): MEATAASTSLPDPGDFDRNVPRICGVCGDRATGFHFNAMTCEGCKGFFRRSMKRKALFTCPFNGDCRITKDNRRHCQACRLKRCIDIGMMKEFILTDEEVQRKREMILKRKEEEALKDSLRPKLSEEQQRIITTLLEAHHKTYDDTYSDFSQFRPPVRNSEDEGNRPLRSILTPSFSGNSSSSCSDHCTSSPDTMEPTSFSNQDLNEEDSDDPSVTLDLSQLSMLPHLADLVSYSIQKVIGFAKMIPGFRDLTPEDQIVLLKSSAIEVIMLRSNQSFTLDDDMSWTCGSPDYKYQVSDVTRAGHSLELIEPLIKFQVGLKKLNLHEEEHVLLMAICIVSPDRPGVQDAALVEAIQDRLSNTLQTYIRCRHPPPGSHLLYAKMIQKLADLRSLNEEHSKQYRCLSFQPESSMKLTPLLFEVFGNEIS
Protocol: The content (about 25 mg) of an ampule of a bovine thymus vitamin D receptor kit made by Yamasa Shoyu Ltd. was dissolved in 55 ml of a 0.05 M phosphoric acid-0.5 M potassium buffer solution (pH 7.4). Fifty μl of the ethanol solution of a compound to be tested and 500 μl of the receptor solution were pre-incubated at room temperature for 1 hr. […] To 500 μl of the supernatant, 9.5 ml of a liquid scintillation cocktail (ACS-II) was added, and the radioactivity of the resultant mixture was measured by a liquid scintillation counter.

[2] = system: HL-60 cell; assay: Differentiation induction of HL-60 cell, nitroblue tetrazolium (NBT) reduction activity; format: cell-based; conditions: HL-60, 4 days culture
Excerpt: Activities of Objective Compounds of the Present Invention on Differentiation Induction effect of HL-60 Cell
HL-60 cell was purchased from a cell bank (Japanese Cancer Research Resource Bank, Cell Number: JCRB 0085). The cell was stored as a frozen storage stock for preventing the change of cell characteristics attributable to successive cultivation. Before the initiation of experiments, the cell was defrosted, and successive cultivation was started for using the cell in the experiments. The cell which had been treated by successive culturing for about one to six months was used for the experiments. The successive culturing was carried out by centrifugally recovering cells from cultivation mixture in suspension culture, and diluting the collected cell concentrate in a fresh culture medium at a ratio of about 1/100 (1−2×10^5 cells/ml). As the culture medium, an RPMI-1640 medium containing 10% fetal bovine serum was used. Successively cultured cells were centrifugally collected, and they were dispersed in a culture medium at the concentration of 2×10^4 cells/ml. The dispersion was seeded into a 24-well culture petri dish at 1 ml/well. An ethanol solution (1×10^−9M to 1×10^−6M) of a compound of the present invention was added to this system at 1 μl/well. Further, regarding 1 α,25(OH)2D3, an ethanol solution of 1×10^−7 M to 1×10^−4 M was added at 1 μl/well, and for the control, ethanol was added at 1 μl/well. After culturing at 37° C. for 4 days under a 5% CO2 atmosphere, the cells were centrifugally collected. Nitroblue tetrazolium (NBT) reduction activity was determined as follows. That is, the collected cells were suspended in a fresh culture medium, and NBT and 12-O-tetradecanoylphorbol-13-acetate were added to the resultant suspension so that their concentrations became 0.1% and 100 nM, respectively. After the mixed suspension was incubated at 37° C. for 25 min, a cytospin sample was prepared. After air drying, it was stained with Kernechtrot, and the ratio of the positive cells of NBT reduction activity was determined under an optical microscope.
Activities of Compounds of the Present Invention on Nitroblue Tetrazolium

For `C=C1C(=CC=C2CCCC3(C)C2CCC3C(C)CCCC(C)(C)O)CC(O)C(C)C1O` [Compound (5), (20R)-1β,25-dihydroxy-2α-methyl-3β vitamin D3, reference compound], the “Binding Affinity for VDR” value [1] was 0.05.

In the case of `C=C1C(=CC=C2CCCC3(C)C2CCC3C(C)CCCC(C)(C)O)CC(O)C(C)C1O` [Compound (4), (20R)-1α,25-dihydroxy-2α-methyl-3β vitamin D3, reference compound], the “Binding Affinity for VDR” value [1] is reported as 400.

In the case of `C=C1C(=CC=C2CCCC3(C)C2CCC3C(C)CCCC(C)(C)O)CC(O)C(C)C1O` [Compound (72), (20S)-1α,25-dihydroxy-2α-methyl-3β-vitamin D3], the “Positive cells (%) of nitroblue tetrazolium reduction activity” value ([2]; concentration 10^−9 M) is reported as 96.2 ± 2.0%, the “Positive cells (%) of nitroblue tetrazolium reduction activity” value ([2]; concentration 10^−10 M) is reported as 95.7 ± 2.3% and the “Positive cells (%) of nitroblue tetrazolium reduction activity” value ([2]; concentration 10^−11 M) is reported as 94.4 ± 1.8%. The “Positive cells (%) of nitroblue tetrazolium reduction activity” value ([2]; concentration 10^−12 M) was 3.7 ± 0.8% and the “Binding Affinity for VDR” value [1] was 1200.

For `C=C1/C(=C\C=C2/CCC[C@]3(C)[C@@H]([C@@H](C)CCCC(C)(C)O)CC[C@@H]23)C[C@@H](O)[C@@H](C)[C@@H]1O` [Compound (68), (20S)-1α,25-dihydroxy-2β-methyl-3β-vitamin D3], the “Positive cells (%) of nitroblue tetrazolium reduction activity” value ([2]; concentration 10^−9 M) was 95.7 ± 1.0%, the “Positive cells (%) of nitroblue tetrazolium reduction activity” value ([2]; concentration 10^−10 M) was 57.7 ± 5.0% and the “Positive cells (%) of nitroblue tetrazolium reduction activity” value ([2]; concentration 10^−11 M) was 2.8 ± 0.7%. The “Positive cells (%) of nitroblue tetrazolium reduction activity” value ([2]; concentration 10^−12 M) was 1.7 ± 0.3% and the “Binding Affinity for VDR” value [1] was 160.

In the case of `C=C1/C(=C\C=C2/CCC[C@]3(C)[C@@H]([C@@H](C)CCCC(C)(C)O)CC[C@@H]23)C[C@H](O)[C@@H](C)[C@H]1O` [Compound (71), (20S)-1β,25-dihydroxy-2β-methyl-3α-vitamin D3], the “Positive cells (%) of nitroblue tetrazolium reduction activity” value ([2]; concentration 10^−9 M) is reported as 40.5 ± 1.8%, the “Positive cells (%) of nitroblue tetrazolium reduction activity” value ([2]; concentration 10^−10 M) is reported as 2.0 ± 1.0% and the “Positive cells (%) of nitroblue tetrazolium reduction activity” value ([2]; concentration 10^−11 M) is reported as 1.8 ± 0.8%. The “Positive cells (%) of nitroblue tetrazolium reduction activity” value ([2]; concentration 10^−12 M) was 1.5 ± 0.8% and the “Binding Affinity for VDR” value [1] was 7.

In the case of `C=C1/C(=C\C=C2/CCC[C@]3(C)[C@@H]([C@@H](C)CCCC(C)(C)O)CC[C@@H]23)C[C@@H](O)[C@@H](C)[C@H]1O` [Compound (69), (20S)-1β,25-dihydroxy-2β-methyl-3β-vitamin D3], the “Binding Affinity for VDR” value [1] is reported as 0.03.

For `C=C1C(=CC=C2CCCC3(C)C2CCC3C(C)CCCC(C)(C)O)CC(O)C(C)C1O` [Compound (65), (20R)-1α,25-dihydroxy-2β-methyl-3β vitamin D3, reference compound], the “Binding Affinity for VDR” value [1] was 13.

`C=C1/C(=C\C=C2/CCC[C@]3(C)[C@@H]([C@@H](C)CCCC(C)(C)O)CC[C@@H]23)C[C@H](O)[C@H](C)[C@@H]1O` [Compound (74), (20S)-1α,25-dihydroxy-2α-methyl-3α-vitamin D3] was tested, and the “Positive cells (%) of nitroblue tetrazolium reduction activity” value ([2]; concentration 10^−9 M) was 96.4 ± 1.4%, the “Positive cells (%) of nitroblue tetrazolium reduction activity” value ([2]; concentration 10^−10 M) was 16.7 ± 1.1% and the “Positive cells (%) of nitroblue tetrazolium reduction activity” value ([2]; concentration 10^−11 M) was 17.0 ± 2.3%. For the same compound, the “Positive cells (%) of nitroblue tetrazolium reduction activity” value ([2]; concentration 10^−12 M) was 6.4 ± 1.1% and the “Binding Affinity for VDR” value [1] was 17.

With `C=C1/C(=C\C=C2/CCC[C@]3(C)[C@@H]([C@@H](C)CCCC(C)(C)O)CC[C@@H]23)C[C@@H](O)[C@H](C)[C@H]1O` [Compound (73), (20S)-1β,25-dihydroxy-2α-methyl-3β-vitamin D3] the “Binding Affinity for VDR” value [1] was 0.05.

For `C=C1C(=CC=C2CCCC3(C)C2CCC3C(C)CCCC(C)(C)O)CC(O)C(C)C1O` [Compound (7), (20R)-1β,25-dihydroxy-2α-methyl-3α vitamin D3, reference compound], the “Binding Affinity for VDR” value [1] was 0.06.

`C=C1C(=CC=C2CCCC3(C)C2CCC3C(C)CCCC(C)(C)O)CC(O)C(C)C1O` [Compound (2), (20R)-1α,25-dihydroxy-2β-methyl-3α vitamin D3, reference compound] was tested, and the “Binding Affinity for VDR” value [1] was 0.3.

In the case of `C=C1C(=CC=C2CCCC3(C)C2CCC3C(C)CCCC(C)(C)O)CC(O)C(C)C1O` [Compound (6), (20R)-1α,25-dihydroxy-2α-methyl-3α vitamin D3, reference compound], the “Binding Affinity for VDR” value [1] is reported as 4.

In the case of `C=C1C(=CC=C2CCCC3(C)C2CCC3C(C)CCCC(C)(C)O)CC(O)C(C)C1O` [Compound (1), (20R)-1β,25-dihydroxy-2β-methyl-3β vitamin D3, reference compound], the “Binding Affinity for VDR” value [1] is reported as 0.05.

For `C=C1/C(=C\C=C2/CCC[C@]3(C)[C@@H]([C@H](C)CCCC(C)(C)O)CC[C@@H]23)C[C@@H](O)C[C@@H]1O` [1α,25-(OH)2VD3, 1α,25-dihydroxyvitamin D3, reference compound], the “Positive cells (%) of nitroblue tetrazolium reduction activity” value ([2]; concentration 10^−7 M) was 96.5 ± 1.0%, the “Positive cells (%) of nitroblue tetrazolium reduction activity” value ([2]; concentration 10^−8 M) was 86.1 ± 2.6% and the “Positive cells (%) of nitroblue tetrazolium reduction activity” value ([2]; concentration 10^−9 M) was 36.8 ± 2.0%. The “Positive cells (%) of nitroblue tetrazolium reduction activity” value ([2]; concentration 10^−10 M) was 4.3 ± 1.2%.

For `C=C1/C(=C\C=C2/CCC[C@]3(C)[C@@H]([C@@H](C)CCCC(C)(C)O)CC[C@@H]23)C[C@H](O)[C@H](C)[C@H]1O` [Compound (75), (20S)-1β,25-dihydroxy-2α-methyl-3α-vitamin D3], the “Binding Affinity for VDR” value [1] was 0.03.

For `C=C1/C(=C\C=C2/CCC[C@]3(C)[C@@H]([C@@H](C)CCCC(C)(C)O)CC[C@@H]23)C[C@H](O)[C@@H](C)[C@@H]1O` [Compound (70), (20S)-1α,25-dihydroxy-2β-methyl-3α-vitamin D3], the “Binding Affinity for VDR” value [1] was 0.08.

`C=C1C(=CC=C2CCCC3(C)C2CCC3C(C)CCCC(C)(C)O)CC(O)C(C)C1O` [Compound (3), (20R)-1β,25-dihydroxy-2β-methyl-3β vitamin D3, reference compound] was tested, and the “Binding Affinity for VDR” value [1] was 0.8.
